Experimental data as given in patent publication US9173935B2, “Phospholipid drug analogs” (Telormedix SA, priority 2010, dated 2015).
Where two headings read alike, the source gives them in different places.

How the values were obtained:
[1] = system: Raw264.7 mouse macrophage cell line; assay: IL-6 and TNF-alpha secretion in Raw264.7 cells (ELISA); format: cell-based; conditions: 24 hours treatment, 7 doses
Method: EC50 values were determined for control and each drug candidate for IL-6 and TNF-alpha secretion. […] The cells were plated in 96 well plates and treated with TLR7 agonists for 24 hours in 7 doses. The conditioned media was removed after 24 hours for ELISA analyses. The cells were subsequently assayed for viability using the XTT assay according to the guidelines from the supplier. […] The experiment was performed in quadruplicate wells for each testing series, and the supernatant pooled and measured by ELISA in triplicates. Concentrations of IL-6 and TNF-alpha were determined by ELISA from R&D Systems using the Microsoft Excel Software. The results were analyzed in Graph Pad Prism in order to prepare dose-response curves, and for determination of EC50 values.

[2] = system: PBMCs; assay: IL-6 and TNF-alpha secretion in PBMCs from three donors (ELISA); format: cell-based, human
Method: EC50 values were determined for control and each drug candidate for IL-6 and TNF-alpha secretion. […] The cells were treated with TLR7 agonists for 24 hours in 7 doses. The conditioned media was removed for ELISA analyses for IL-6 and TNF-alpha, and cell survival determined by the XTT method according to the protocol from the supplier. […] Concentrations of IL-6 and TNF-alpha were determined by ELISA from R&D Systems using the Microsoft Excel Software. The results were analyzed in Graph Pad Prism in order to prepare dose-response curves, and for determination of EC50 values.

[3] = system: HLA-DR+/CD20+ B cells; assay: FACS analysis of B cell activation (CD40) in whole blood; format: cell-based, human; conditions: 24 hours, 2 and 10 uM, three donors
Method: A flow cytometric analysis was performed on whole blood from three donors after treatment with two compound concentrations for 24 h. The FACS analysis for donor 1 and donor 2 was made on another day than donor 3. The compound concentrations were as follows:
B cell activation: 2 and 10 uM
The FACS analysis was used to identify whether the test compounds could induce activation of B cells, and two different subsets of dendritic cells, namely the myeloid CD11c+/CD123− DCs and the plasmacytoid CD11c−/CD123+ DCs. The following markers were studied to identify the activation status of the different subsets:
The FACS staining was performed according to the manufacturer's instructions. Lysis of red blood cells was performed before FACS staining in order to minimize auto-florescence. To include as many B cells and DCs in the study as possible the FACS analyses were performed on 500,000 cells in total for each staining. A P1 gate was set only to include relevant cells on FSC vs. SSC (see FIGS. 12-15). The results of the individual analysis were present as Mean Fluorescence Intensity
The analysis of expression of the activation marker CD40 on B cells was made on double positive HLA-DR (MHC class II) (P4 gate) and CD20 cells (B cell marker) (P8 gate).

[4] = biological target: CYP1A2 (Homo sapiens (Human), UniProt P05177); assay: Fluorescent High Throughput P450 assay, CYP1A2; format: biochemical; conditions: substrate CEC; read-out: CYP1A2 IC50 (Mean ± S.D.)
Sequence of CYP1A2 (P05177 whole entry, looked up): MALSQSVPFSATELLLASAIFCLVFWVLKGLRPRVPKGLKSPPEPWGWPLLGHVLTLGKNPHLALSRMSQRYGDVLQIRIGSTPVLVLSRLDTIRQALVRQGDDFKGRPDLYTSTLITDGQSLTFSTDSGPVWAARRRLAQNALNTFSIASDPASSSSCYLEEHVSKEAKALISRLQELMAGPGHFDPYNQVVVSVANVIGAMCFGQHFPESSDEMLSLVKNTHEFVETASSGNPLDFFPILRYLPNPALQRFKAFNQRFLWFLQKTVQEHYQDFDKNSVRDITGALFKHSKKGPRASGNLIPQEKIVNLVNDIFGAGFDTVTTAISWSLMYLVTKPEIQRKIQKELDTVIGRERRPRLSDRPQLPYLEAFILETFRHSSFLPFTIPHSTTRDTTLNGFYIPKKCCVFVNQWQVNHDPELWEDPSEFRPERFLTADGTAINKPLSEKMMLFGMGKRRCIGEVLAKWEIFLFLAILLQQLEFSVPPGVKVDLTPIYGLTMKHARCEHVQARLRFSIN
Method: (§1) Inhibition of the P450 isoforms was measured in specific assays using specific substrates that become fluorescent upon CYP metabolism. Compounds, dissolved in ACN (acetonitrile) (CYP2E1, CYP2C8, CYP2B6, CYP3A5) or DMSO (all remaining isoforms), were tested in duplicate (n=2) in concentration-response curves (eight concentrations) in a 96-well plate containing incubation/NADPH regenerating buffer. Specific isoenzymes and substrates were added and incubated at 37° C. Reactions were terminated at different times, depending on the assays, and plates read on a Fluoroskan Ascent at the appropriate emission/excitation wavelengths. Concentration-response curves performed in duplicate for known inhibitors for each isoenzyme were tested in every assay as positive control.

[5] = biological target: CYP2C19 (Homo sapiens (Human), UniProt P33261); assay: Fluorescent High Throughput P450 assay, CYP2C19; format: biochemical; conditions: substrate CEC; read-out: CYP2C19 IC50 (Mean ± S.D.)
Sequence of CYP2C19 (P33261 whole entry, looked up): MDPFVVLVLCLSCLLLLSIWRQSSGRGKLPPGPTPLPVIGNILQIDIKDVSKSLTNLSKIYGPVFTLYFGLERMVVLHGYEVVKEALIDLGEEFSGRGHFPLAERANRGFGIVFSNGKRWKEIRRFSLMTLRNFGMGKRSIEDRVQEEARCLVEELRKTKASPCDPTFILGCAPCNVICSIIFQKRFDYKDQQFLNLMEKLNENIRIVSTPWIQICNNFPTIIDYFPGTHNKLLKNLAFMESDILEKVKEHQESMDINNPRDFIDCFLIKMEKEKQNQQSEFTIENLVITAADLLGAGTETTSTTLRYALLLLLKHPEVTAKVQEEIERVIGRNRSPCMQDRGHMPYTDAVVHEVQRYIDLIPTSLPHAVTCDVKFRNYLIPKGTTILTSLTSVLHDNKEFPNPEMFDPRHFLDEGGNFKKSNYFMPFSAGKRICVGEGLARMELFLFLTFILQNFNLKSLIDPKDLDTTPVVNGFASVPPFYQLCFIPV
Method: as §1

[6] = biological target: CYP2D6 (Homo sapiens (Human), UniProt P10635); assay: Fluorescent High Throughput P450 assay, CYP2D6; format: biochemical; conditions: substrate AMMC; read-out: CYP2D6 IC50 (Mean ± S.D.)
Sequence of CYP2D6 (P10635 whole entry, looked up): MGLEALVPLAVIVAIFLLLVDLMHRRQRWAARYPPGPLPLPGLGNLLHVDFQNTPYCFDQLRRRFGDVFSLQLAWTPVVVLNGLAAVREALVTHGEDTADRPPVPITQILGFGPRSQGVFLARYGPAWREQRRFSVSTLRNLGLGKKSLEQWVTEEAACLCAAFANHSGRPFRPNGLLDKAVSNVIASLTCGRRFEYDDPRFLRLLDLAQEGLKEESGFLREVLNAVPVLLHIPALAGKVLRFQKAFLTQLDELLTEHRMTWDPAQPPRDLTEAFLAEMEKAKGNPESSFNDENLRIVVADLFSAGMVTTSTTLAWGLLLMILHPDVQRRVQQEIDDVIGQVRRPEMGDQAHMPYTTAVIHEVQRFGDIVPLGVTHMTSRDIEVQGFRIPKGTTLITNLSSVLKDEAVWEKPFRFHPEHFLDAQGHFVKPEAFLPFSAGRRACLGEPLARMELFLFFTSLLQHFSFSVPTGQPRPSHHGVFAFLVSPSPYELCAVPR
Method: as §1

[7] = biological target: CYP3A4 (Homo sapiens (Human), UniProt P08684); assay: Fluorescent High Throughput P450 assay, CYP3A4; format: biochemical; conditions: substrate BFC; read-out: CYP3A4 IC50 (Mean ± S.D.)
Sequence of CYP3A4 (P08684 whole entry, looked up): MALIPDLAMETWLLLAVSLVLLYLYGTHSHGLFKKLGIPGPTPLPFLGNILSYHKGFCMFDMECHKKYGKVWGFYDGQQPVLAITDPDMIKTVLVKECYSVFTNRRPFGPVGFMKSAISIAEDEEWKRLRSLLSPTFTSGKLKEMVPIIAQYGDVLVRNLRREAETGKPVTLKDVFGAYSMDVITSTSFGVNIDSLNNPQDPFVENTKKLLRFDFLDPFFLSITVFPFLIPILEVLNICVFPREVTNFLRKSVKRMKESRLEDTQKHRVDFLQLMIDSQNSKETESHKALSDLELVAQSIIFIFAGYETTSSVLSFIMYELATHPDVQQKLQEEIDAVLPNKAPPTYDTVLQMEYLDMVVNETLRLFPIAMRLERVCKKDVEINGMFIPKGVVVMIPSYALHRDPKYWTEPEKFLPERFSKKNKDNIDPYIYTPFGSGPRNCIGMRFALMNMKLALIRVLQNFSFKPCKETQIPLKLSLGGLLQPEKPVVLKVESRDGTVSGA
Method: as §1

[8] = biological target: CYP2B6 (Homo sapiens (Human), UniProt P20813); assay: Fluorescent High Throughput P450 assay, CYP2B6; format: biochemical; conditions: substrate EFC; read-out: CYP2B6 IC50 (Mean ± S.D.)
Sequence of CYP2B6 (P20813 whole entry, looked up): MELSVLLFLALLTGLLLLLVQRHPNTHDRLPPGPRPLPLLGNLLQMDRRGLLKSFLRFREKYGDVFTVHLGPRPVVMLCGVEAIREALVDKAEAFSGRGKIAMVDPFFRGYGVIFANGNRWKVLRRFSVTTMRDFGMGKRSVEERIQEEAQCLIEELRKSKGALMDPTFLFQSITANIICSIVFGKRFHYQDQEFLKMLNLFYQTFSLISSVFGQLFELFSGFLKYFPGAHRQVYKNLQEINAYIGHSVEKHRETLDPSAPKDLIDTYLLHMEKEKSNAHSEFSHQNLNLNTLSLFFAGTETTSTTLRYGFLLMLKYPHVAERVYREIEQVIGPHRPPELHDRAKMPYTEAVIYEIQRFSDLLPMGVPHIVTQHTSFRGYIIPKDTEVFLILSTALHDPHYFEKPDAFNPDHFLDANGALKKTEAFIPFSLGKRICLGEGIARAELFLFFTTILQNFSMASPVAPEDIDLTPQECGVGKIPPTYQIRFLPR
Method: as §1

[9] = system: Cutaneous Squamous Cell Carcinoma cell lines SCL-I, SCL-II, SCC-12, SCC-13; assay: Direct proapoptotic and cytotoxic effects on SCC cells (real-time cell analysis, microscopy); format: cell-based, human
Method: SCC cells are grown under standard conditions (10% FBS).
Time and dose dependency of effects on total cell numbers have been investigated by real-time cell analysis, which is based on continuous monitoring of electric conductance in microtiter wells (E-plates, Roche), which corresponds to the cell numbers. […] For these assays 4 cell lines should be used to obtain a representative overview on the effects on SCC cells.

[10] = system: recombinant protein antigens from Plasmodium falciparum and Mycobacterium ulcerans; assay: Pilot immunization study with adjuvanted protein antigens; format: in vivo, mice; conditions: three s.c. immunizations
Method: A pilot immunization study was conducted using Compound A and SC12 adjuvanted protein antigens. The immunization experiments were performed with two recombinant proteins expressed in E. coli. One antigen was derived from the malaria parasite Plasmodium falciparum and the other one from Mycobacterium ulcerans, which cause the ulcerative skin disease Buruli ulcer.

[11] = system: RAW.264 cells; assay: Intracellular uptake in RAW.264 cells (LC-MS); format: cell-based; conditions: 10 microM
Method: 5×10^6 RAW.264 cells were adhered overnight in 10 cm tissue culture dishes. […] […] Supernatant (2 ml) and cells (pellets) were collected by trypsinization and frozen at […] for subsequent analysis by LC-MS.

`CCCCCCCCCCCC(=O)OCC(COP(=O)(O)OCCNC(=O)c1ccc(Cn2c(=O)[nH]c3c(N)nc(OCCOC)nc32)cc1)OC(=O)CCCCCCCCCCC` (centres unmarked) [SC12] gave an EC50 ([1]; read-out: EC 50 IL 6) of 42 nM, an EC50 ([1]; read-out: EC 50 TNF-alpha) of 41 nM and an EC50 ([2]; D1, first experiments on three donors, read-out: EC50 values, IL-6 secretion) of 1440 nM. It also gave an EC50 ([2]; D2, first experiments on three donors, read-out: EC50 values, IL-6 secretion) of 864 nM, an EC50 ([2]; D3, first experiments on three donors, read-out: EC50 values, IL-6 secretion) of 2780 nM and an EC50 ([2]; Donor 1, 24 hours, read-out: IL-6 secretion MC50) of 1440 nM. The EC50 ([2]; Donor 1, 24 hours, read-out: TNFa secretion MC50) was 995 nM, the EC50 ([2]; Donor 2, 24 hours, read-out: IL-6 secretion MC50) was 864 nM and the EC50 ([2]; Donor 2, 24 hours, read-out: TNFa secretion MC50) was 275 nM. The EC50 ([2]; Donor 3, 24 hours, read-out: IL-6 secretion MC50) was 2780 nM, the EC50 ([2]; Donor 3, 24 hours, read-out: TNFa secretion MC50) was 121 nM and the EC50 ([2]; average of three donors, read-out: IL-6 secretion Average EC50) was 1700 nM. For the same compound, the EC50 ([2]; average of three donors, read-out: TNFa secretion Average EC50) was 464 nM, the “CD40 expression (MFI) on B cells” value [3] was “induced CD40 expression in donor 1 and donor 2 in all tested concentrations” and the IC50 [4] was > 100000 nM. The IC50 [5] was > 100000 nM, the IC50 [6] was 67000 ± 3800 nM and the IC50 [7] was 13600 ± 700 nM. For the same compound, the IC50 [8] was > 100000 nM, the “Cell numbers (electric conductance, real-time cell analysis)” value ([9]; 4 cutaneous SCC cell lines, versus untreated control) was “reduced cell numbers” and the “Morphology and proliferation (microscopy)” value ([9]; day 3, 120 microM) was “cell detachment, morphological changes and inhibition of proliferation”. For the same compound, the “Local side effects (swelling, ulcerations)” value ([10]; 10 nMol adjuvant) was “No local side effects”, the “IgG responses against target antigens” value ([10]; 20 micrograms antigen with 10 nMol adjuvant) was “all 20 immunized mice had developed IgG responses” and the “Intracellular Concentration” value ([11]; incubation 1 hours) was 18.5 % of total. For the same compound, the “Intracellular Concentration” value ([11]; incubation 6 hours) was 20.6 % of total and the “Intracellular Concentration” value ([11]; incubation 18 hours) was 21.4 % of total.
